The supplement of paper PMC10307832

Legend:
Test in all cases: relative viability (nuclei count vs DMSO), 5 days (fraction); higher = more cells survive
Axitinib + Tozasertib = compound: CNC(=O)c1ccccc1Sc1ccc2c(/C=C/c3ccccn3)n[nH]c2c1 [Axitinib] + Cc1cc(Nc2cc(N3CCN(C)CC3)nc(Sc3ccc(NC(=O)C4CC4)cc3)n2)n[nH]1 [Tozasertib] (partner 0.1 µM)
Summary of the method: (§1)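 Relative viability is defined as nuclei in treated wells over nuclei in vehicle wells. Duplicate plates were run and medians reported. Lung cancer cell lines in 1536-well plates were dosed by pin tool one day after seeding, with one drug or with a fixed anchor-drug dose plus five library-drug doses (not always all listed) in √10 steps, and nuclei were counted after 5 days.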

[1] = compound: Nc1nc(Nc2ccc3c(c2)CC[C@@H](N2CCCC2)CC3)nn1-c1cc2c(nn1)-c1ccccc1CCC2 [Bemcentinib] + CC(=O)c1c(C)c2cnc(Nc3ccc(N4CCNCC4)cn3)nc2n(C2CCCC2)c1=O [Palbociclib] (partner 0.5 µM)
Summary of the method: as §1

Bemcentinib + Alpelisib = compound: Nc1nc(Nc2ccc3c(c2)CC[C@@H](N2CCCC2)CC3)nn1-c1cc2c(nn1)-c1ccccc1CCC2 [Bemcentinib] + Cc1nc(NC(=O)N2CCC[C@H]2C(N)=O)sc1-c1ccnc(C(C)(C)C(F)(F)F)c1 [Alpelisib] (partner 2 µM)
Summary of the method: as §1

Bemcentinib + Decitabine = compound: Nc1nc(Nc2ccc3c(c2)CC[C@@H](N2CCCC2)CC3)nn1-c1cc2c(nn1)-c1ccccc1CCC2 [Bemcentinib] + Nc1ncn([C@H]2C[C@H](O)[C@@H](CO)O2)c(=O)n1 [Decitabine] (partner 2 µM)
Summary of the method: as §1

Cell Line | relative viability (Axitinib + Tozasertib; first compound 0.005 µM) | relative viability (Axitinib + Tozasertib; first compound 0.01581 µM) | relative viability (Axitinib + Tozasertib; first compound 0.05 µM) | relative viability (Axitinib + Tozasertib; first compound 0.1581 µM) | relative viability (Axitinib + Tozasertib; first compound 0.5 µM) | relative viability ([1]; first compound 0.04 µM) | relative viability ([1]; first compound 0.1265 µM) | relative viability ([1]; first compound 0.4 µM) | relative viability ([1]; first compound 1.265 µM) | relative viability ([1]; first compound 4 µM) | relative viability (Bemcentinib + Alpelisib; first compound 0.04 µM) | relative viability (Bemcentinib + Alpelisib; first compound 0.1265 µM) | relative viability (Bemcentinib + Alpelisib; first compound 0.4 µM) | relative viability (Bemcentinib + Alpelisib; first compound 1.265 µM) | relative viability (Bemcentinib + Alpelisib; first compound 4 µM) | relative viability (Bemcentinib + Decitabine; first compound 0.04 µM) | relative viability (Bemcentinib + Decitabine; first compound 0.1265 µM) | relative viability (Bemcentinib + Decitabine; first compound 0.4 µM) | relative viability (Bemcentinib + Decitabine; first compound 1.265 µM) | relative viability (Bemcentinib + Decitabine; first compound 4 µM)
NCI-H2023 | 0.368 | 0.395 | 0.38 | 0.483 | 0.604 | 0.416 | 0.398 | 0.388 | 0.437 | 0.425 | 0.678 | 0.602 | 0.72 | 0.528 | 0.587 | 0.204 | 0.264 | 0.233 | 0.282 | 0.224
NCI-H441 | 0.746 | 0.585 | 0.658 | 0.789 | 0.796 | 0.197 | 0.202 | 0.227 | 0.195 | 0.223 | 0.86 | 0.74 | 0.756 | 0.467 | 0.976 | 0.208 | 0.276 | 0.218 | 0.236 | 0.255
NCI-H2347 | 0.589 | 0.524 | 0.609 | 0.498 | 0.675 | 0.438 | 0.467 | 0.385 | 0.443 | 0.443 | 1.14 | 1.08 | 1.07 | 1.1 | 0.974 | 0.653 | 0.573 | 0.665 | 0.678 | 0.639
NCI-H358 | 0.105 | 0.0955 | 0.105 | 0.101 | 0.108 | 0.135 | 0.143 | 0.143 | 0.137 | 0.135 | 0.97 | 0.826 | 1.04 | 0.826 | 0.971 | 0.202 | 0.209 | 0.211 | 0.212 | 0.263
NCI-H1944 | 0.238 | 0.258 | 0.264 | 0.263 | 0.297 | 0.324 | 0.379 | 0.304 | 0.327 | 0.329 | 0.825 | 0.821 | 0.898 | 0.871 | 0.846 | 0.413 | 0.39 | 0.443 | 0.443 | 0.417
ABC-1 | 0.19 | 0.226 | 0.14 | 0.179 | 0.183 | 0.532 | 0.825 | 0.654 | 0.655 | 0.639 | 1.22 | 1.07 | 1.08 | 0.997 | 1.07 | 0.899 | 1.23 | 1.03 | 0.835 | 1.14
UMC-11 | 0.211 | 0.195 | 0.2 | 0.202 | 0.206 | 0.354 | 0.343 | 0.323 | 0.349 | 0.324 | 1.08 | 1.19 | 1.11 | 0.968 | 1.05 | 0.576 | 0.565 | 0.521 | 0.628 | 0.58
PC-3 [JPC-3] | 0.96 | 0.899 | 1 | 0.855 | 1.03 | 0.548 | 0.577 | 0.522 | 0.592 | 0.551 | 0.986 | 1.1 | 0.985 | 1.1 | 1.08 | 0.773 | 0.897 | 0.804 | 0.822 | 0.804
LU99A | 0.27 | 0.266 | 0.264 | 0.369 | 0.419 | 0.367 | 0.37 | 0.422 | 0.401 | 0.413 | 0.453 | 0.584 | 0.591 | 0.542 | 0.569 | 0.918 | 0.882 | 0.899 | 0.975 | 0.987
NCI-H2087 | 0.247 | 0.294 | 0.282 | 0.321 | 0.357 | 0.235 | 0.24 | 0.228 | 0.273 | 0.198 | 0.886 | 1.43 | 1.09 | 0.949 | 1.13 | 0.295 | 0.318 | 0.281 | 0.265 | 0.302
LCLC-97TM1 | 0.251 | 0.271 | 0.276 | 0.415 | 0.393 | 0.253 | 0.283 | 0.231 | 0.261 | 0.264 | 0.313 | 0.226 |  | 0.289 | 0.265 | 0.248 | 0.212 | 0.217 | 0.207 | 0.252
BEN | 0.495 | 0.574 | 0.582 | 0.513 | 0.466 | 0.488 | 0.498 | 0.464 | 0.432 | 0.514 | 0.984 | 1.09 | 1.11 | 1.12 | 1.02 | 0.696 | 0.784 | 0.762 | 0.629 | 0.677
NCI-H727 | 0.543 | 0.628 | 0.625 | 0.674 | 0.746 | 0.625 | 0.663 | 0.637 | 0.696 | 0.667 | 0.528 | 0.576 | 0.492 | 0.491 | 0.621 | 0.832 | 0.932 | 0.807 | 0.717 | 0.891
NCI-H1915 | 0.458 | 0.491 | 0.443 | 0.464 | 0.655 | 0.532 | 0.506 | 0.521 | 0.512 | 0.527 | 1.15 | 1.13 | 1.1 | 1.07 | 1.08 | 0.24 | 0.25 | 0.255 | 0.252 | 0.257
HARA | 0.125 | 0.0963 | 0.0847 | 0.106 | 0.123 | 0.211 | 0.252 | 0.215 | 0.314 | 0.243 | 0.759 | 0.918 | 0.822 | 0.866 | 0.936 | 0.578 | 0.651 | 0.561 | 0.556 | 0.518
EMC-BAC-2 | 0.301 | 0.299 | 0.272 | 0.391 | 0.412 | 0.519 | 0.556 | 0.507 | 0.513 | 0.519 | 0.833 | 0.756 | 0.817 | 0.788 | 0.803 | 0.955 | 1 | 1.12 | 0.997 | 1.01
